IC50 data for six compounds are collected here from publication PMC9699003, “Arene Variation of Highly Cytotoxic Tridentate Naphthoquinone-Based Ruthenium(II) Complexes and In-Depth In Vitro Studies” (Pharmaceutics, 2022).

The test system of assay [1] is A549 non-small cell lung cancer cells. The note with it: A549, MTT, 96 h exposure; cited from earlier work.
The subject of assay [2] is SW480 colon carcinoma cells. The note with it: SW480, MTT, 96 h exposure; cited from earlier work.
The test system of assay [3] is CH1/PA-1 ovarian teratocarcinoma cells. The following applies: CH1/PA-1, MTT, 96 h exposure; cited from earlier work.
Assay [4] has as its system A549 non-small cell lung cancer cells. The assay is described as follows: MTT assay (cytotoxicity). The note with it: 96 h exposure. Type of assay: cell-based, human. The protocol:
(§1) CH1/PA-1 ovarian teratocarcinoma cells (provided by L. R. Kelland, CRC Centre for Cancer Therapeutics, Institute of Cancer Research, Sutton, UK; confirmed by STR profiling as PA-1 ovarian teratocarcinoma cells at Multiplexion, Heidelberg, Germany), SW480 colon carcinoma and A549 non-small cell lung cancer cells (both obtained from the American Type Culture Collection, Manassas, VA, USA) were grown as adherent cultures in 75 cm² culture flasks (CytoOne, Starlab, Hamburg, Germany) by using minimal essential medium (MEM) supplemented with 1 mM sodium pyruvate, 4 mM L-glutamine, 1% (v/v) nonessential amino acids from 100-fold stock (all purchased from Sigma-Aldrich) and 10% heat-inactivated fetal bovine serum (BioWest, Nuaillé, France). Cells were maintained under standard culture conditions with 5% CO2 at 37 °C in a humidified atmosphere.
(§2) The 3-(4,5-dimethylthiazol-2-yl)-2,5-diphenyl-2H-tetrazolium bromide (MTT, Acros Organics, Geel, Belgium) assay was used to detect the cytotoxicity of the compounds after 24 h and 96 h incubation. In brief, cells were harvested from culture flasks and the following cell numbers (each in 100 µL) were seeded into 96-well culture plates (CytoOne, tissue culture treated, Starlab, Hamburg, Germany) for 24 h incubation: 1 × 10^4 (CH1/PA-1), 1 × 10^4 (SW480) and 1.5 × 10^4 (A549) cells per well; and for 96 h incubation: 1 × 10^3 (CH1/PA-1), 2 × 10^3 (SW480) and 3 × 10^3 (A549) cells per well. After 24 h, cells resuming their exponential growth rate were treated with test compounds at nine concentrations obtained by serial two-fold dilution. Stock solutions were prepared in DMSO (20 mM or 40 mM) and diluted in supplemented MEM. An amount of 100 µL of each concentration was added to the plates in triplicates and cells were exposed for 24 or 96 h. Afterward, the medium was replaced with 100 µL of MTT solution (5 mg/mL) in phosphate-buffered saline (PBS, Sigma-Aldrich), diluted 1:7 in RPMI 1640 medium (supplemented with 4 mM L-glutamine and 10% heat-inactivated FBS). Upon cell-viability-dependent conversion of the yellow, water-soluble tetrazolium salt into purple formazan products for 4 h, the crystals were dissolved in 150 µL DMSO. The absorbance of the resulting solutions, which is directly proportional to the number of viable cells, was measured at 550 nm (and at 690 nm as a reference) with a microplate reader (ELx808, BioTek, Winoosky, VT, USA) and Gen5TM 3.08 software (BioTek). Blank-corrected optical densities were subjected to graphical evaluation and interpolation of IC50 values. At least three biologically and technically independent experiments were performed.

The subject of assay [5] is CH1/PA-1 ovarian teratocarcinoma cells. The assay is described as follows: MTT assay (cytotoxicity). Type of assay: cell-based, human. The note with it: CH1/PA-1, MTT, 96 h exposure. The protocol: as §1, §2
Assay [6] relates to SW480 colon carcinoma cells. The assay can be described thus: MTT assay (cytotoxicity). Type of assay: cell-based, human. The following applies: 96 h exposure. How it is done:
as §1, §2

Structures are written as SMILES. Like-named read-outs stand apart in the source and are kept apart here.

`N.N.O=C([O-])C1(C(=O)[O-])CCC1.[Pt+2]` [Carboplatin]: the IC50 in assay [1] is 38 ± 3 µM; in assay [2] it was 42 ± 10 µM; in assay [3], 0.79 ± 0.11 µM.

Regarding `N.N.[Cl][Pt][Cl]` [Cisplatin, reference compound], the IC50 was determined as 3.8 ± 1 µM in assay [4], 0.073 ± 0.001 µM in assay [5] and 2.3 ± 0.2 µM in assay [6].

On to `O=C1[O][Pt]2([NH][C@@H]3CCCC[C@H]3[NH]2)[O]C1=O` [Oxaliplatin], for which the IC50 in assay [1] was 0.98 ± 0.21 µM; in assay [2] it was 0.29 ± 0.05 µM; in assay [3], 0.18 ± 0.01 µM.

Take `[Cl][Ru][Cl].[Cl][Ru][Cl].c1ccccc1.c1ccccc1` [[Ru(benzene)Cl2]2]: the concentration for half-maximal inhibition (IC50) in assay [1], in assay [2] and in assay [3] was > 100 µM throughout.

For `[Cl][Ru-]1[Cl+][Ru-]([Cl])[Cl+]1.c1ccc2c(c1)CCC2.c1ccc2c(c1)CCC2` [[Ru(indane)Cl2]2], the concentration for half-maximal inhibition (IC50) is 257 ± 66 µM in assay [1], 166 ± 35 µM in assay [2] and 51 ± 13 µM in assay [3].

Take `Cc1ccccc1.Cc1ccccc1.[Cl][Ru-]1[Cl+][Ru-]([Cl])[Cl+]1` [[Ru(toluene)Cl2]2]: the half-maximal inhibitory concentration (IC50) in assay [1], in assay [2] and in assay [3] was > 100 µM in each case.
